We go through 1 substance from article PMC11037862 (ACS chemical neuroscience, 2023).

As usually defined, the Kd is the constant that tells how readily two partners part at equilibrium. Low values mean a tighter complex, high ones a looser complex.

This assay deals with S1PR1 (sphingosine-1-phosphate receptor 1) (Homo sapiens, UniProt P21453). Nature of the assay: saturation autoradiography with the tritiated ligand on human brain sections.
Chain of S1PR1 (sphingosine-1-phosphate receptor 1) (P21453 whole entry): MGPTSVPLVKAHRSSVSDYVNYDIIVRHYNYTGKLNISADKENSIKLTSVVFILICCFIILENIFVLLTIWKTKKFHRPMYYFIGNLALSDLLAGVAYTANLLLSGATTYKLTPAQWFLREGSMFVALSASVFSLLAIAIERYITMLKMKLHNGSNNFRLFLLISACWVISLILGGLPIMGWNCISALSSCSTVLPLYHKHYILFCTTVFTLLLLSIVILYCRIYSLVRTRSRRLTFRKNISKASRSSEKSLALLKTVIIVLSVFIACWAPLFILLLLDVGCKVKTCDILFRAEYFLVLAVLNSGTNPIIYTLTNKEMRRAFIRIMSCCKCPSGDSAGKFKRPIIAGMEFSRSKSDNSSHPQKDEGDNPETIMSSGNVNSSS

For [^3H]CS1P1, the dissociation constant (Kd) came out at 2.7 ± 0.2 nM.
